Patent US7241782B1, “Polymorph V of torasemide” (PLIVA, farmaceutska industrija, dionicko drustvo, priority 2000, dated 2007)

Key:
[1] = Release of the active substance in water (USP 24); assay type: physicochemical; conditions: for Released torasemide: water, USP 24, 37° C., 50 rpm, 1000 ml
Method: This makes the novel polymorph V of torasemide suitable for the preparation of pharmaceutical preparations having immediate or prolonged action. The novel polymorph V of torasemide obtained according to Example 1 of the present invention was subjected to testing the release of the active substance in water at the temperature of 37° C. [table]

[2] = Stability at milling and pressing under normal storage conditions; assay type: physicochemical

For Cc1cccc(Nc2ccncc2S(=O)(=O)NC(=O)NC(C)C)c1 [novel polymorph V of torasemide, N-(1-methylethylaminocarbonyl)-4-(3-methyl-phenylamino)-3-pyridinesulfonamide], the “Release in comparison with the release profile of known crystalline torasemide modifications” value ([1]; in water (USP 24), same medium) was “slower release”, the Released torasemide ([1]; time 0 min) was 0% and the Released torasemide ([1]; time 15 min) was 11.3%. It also gave a Released torasemide ([1]; time 30 min) of 20.5%, a Released torasemide ([1]; time 45 min) of 26.0% and a Released torasemide ([1]; time 60 min) of 30.0%. The Released torasemide ([1]; time 90 min) was 36.0%, the Released torasemide ([1]; time 120 min) was 40.7% and the “Stability of the crystal form (no transformation into modifications I, II, III or amorphous)” value [2] was “stable at milling and pressing”.
